Assay results from the kinase profiling compilation of Christmann-Franck et al. (2016).
“And” between values parts separate entries of the source, which are not always exact repeats. Equal values may be shown once.

What was measured:
Experiment in all cases: radiometric filter-binding kinase assay, Kinase HotSpot
Conditions in all cases: compound 0.5 µM; ATP 10 µM
MAP3K9 (human) = MAP3K9 (human) (UniProt P80192)
EPHA3 (human) = EPHA3 (human) (UniProt P29320)
GSK3A (human) = GSK3A (human) (UniProt P49840)
MAP3K2 (human) = MAP3K2 (human) (UniProt Q9Y2U5)
CSNK2A2 (human) = CSNK2A2 (human) (UniProt P19784)
CHUK (human) = CHUK (human) (UniProt O15111)
FES (human) = FES (human) (UniProt P07332)
NUAK1 (human) = NUAK1 (human) (UniProt O60285)
BTK (human) = BTK (human) (UniProt Q06187)
PRKD2 (human) = PRKD2 (human) (UniProt Q9BZL6)
RET (human) = RET (human) (UniProt P07949)
SRPK2 (human) = SRPK2 (human) (UniProt P78362)
CAMK2B (human) = CAMK2B (human) (UniProt Q13554)
TBK1 (human) = TBK1 (human) (UniProt Q9UHD2)
MAPK13 (human) = MAPK13 (human) (UniProt O15264)
CDK4 CCND3 (human) = CDK4 CCND3 (human) (UniProt P30281+P11802)
STK25 (human) = STK25 (human) (UniProt O00506)
CAMK1D (human) = CAMK1D (human) (UniProt Q8IU85)
GSG2 (human) = GSG2 (human) (UniProt Q8TF76)
EPHA8 (human) = EPHA8 (human) (UniProt P29322)
RPS6KA3 KD1 KD2 (human) = RPS6KA3 KD1 KD2 (human) (UniProt P51812)
NEK7 (human) = NEK7 (human) (UniProt Q8TDX7)
DYRK1A (human) = DYRK1A (human) (UniProt Q13627)
MARK1 (human) = MARK1 (human) (UniProt Q9P0L2)
[1] = molecular target: JAK1 JH1 catalytic (human) (UniProt P23458)
CSNK1G2 (human) = CSNK1G2 (human) (UniProt P78368)
IGF1R (human) = IGF1R (human) (UniProt P08069)
MERTK (human) = MERTK (human) (UniProt Q12866)
PTK2B (human) = PTK2B (human) (UniProt Q14289)
NTRK3 (human) = NTRK3 (human) (UniProt Q16288)
TSSK1B (human) = TSSK1B (human) (UniProt Q9BXA7)
NTRK2 (human) = NTRK2 (human) (UniProt Q16620)
DDR2 (human) = DDR2 (human) (UniProt Q16832)
EPHA1 (human) = EPHA1 (human) (UniProt P21709)
DAPK1 (human) = DAPK1 (human) (UniProt P53355)
NUAK2 (human) = NUAK2 (human) (UniProt Q9H093)
MAP2K2 (human) = MAP2K2 (human) (UniProt P36507)
PRKG1 (human) = PRKG1 (human) (UniProt Q13976)
HIPK4 (human) = HIPK4 (human) (UniProt Q8NE63)
ABL2 (human) = ABL2 (human) (UniProt P42684)
EPHA2 (human) = EPHA2 (human) (UniProt P29317)
EPHB2 (human) = EPHB2 (human) (UniProt P29323)

Chain of PRKD2 (human) (Q9BZL6 whole entry, looked up): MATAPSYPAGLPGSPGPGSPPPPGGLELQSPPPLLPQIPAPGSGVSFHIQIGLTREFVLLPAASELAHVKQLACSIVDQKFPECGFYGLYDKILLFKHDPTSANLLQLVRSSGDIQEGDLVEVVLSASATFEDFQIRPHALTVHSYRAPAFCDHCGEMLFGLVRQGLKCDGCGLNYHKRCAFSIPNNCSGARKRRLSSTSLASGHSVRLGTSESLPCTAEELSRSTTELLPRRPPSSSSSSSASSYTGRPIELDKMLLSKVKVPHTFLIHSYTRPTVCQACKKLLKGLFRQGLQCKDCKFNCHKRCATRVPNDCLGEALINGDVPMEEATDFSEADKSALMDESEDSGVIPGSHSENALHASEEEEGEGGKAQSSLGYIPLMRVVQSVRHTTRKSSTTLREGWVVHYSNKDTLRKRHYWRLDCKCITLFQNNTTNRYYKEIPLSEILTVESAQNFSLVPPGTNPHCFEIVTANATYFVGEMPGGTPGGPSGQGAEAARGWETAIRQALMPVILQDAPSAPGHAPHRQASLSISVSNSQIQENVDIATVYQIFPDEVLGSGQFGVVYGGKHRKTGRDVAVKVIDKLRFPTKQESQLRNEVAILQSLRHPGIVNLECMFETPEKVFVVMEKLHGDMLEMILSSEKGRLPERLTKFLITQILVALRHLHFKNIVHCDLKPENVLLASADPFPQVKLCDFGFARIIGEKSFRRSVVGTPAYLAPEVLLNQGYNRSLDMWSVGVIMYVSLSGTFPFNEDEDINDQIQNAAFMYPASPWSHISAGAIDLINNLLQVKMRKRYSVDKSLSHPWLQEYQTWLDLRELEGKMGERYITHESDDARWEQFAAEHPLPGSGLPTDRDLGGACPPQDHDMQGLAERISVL
Chain of MAP3K9 (human) (P80192 whole entry, looked up): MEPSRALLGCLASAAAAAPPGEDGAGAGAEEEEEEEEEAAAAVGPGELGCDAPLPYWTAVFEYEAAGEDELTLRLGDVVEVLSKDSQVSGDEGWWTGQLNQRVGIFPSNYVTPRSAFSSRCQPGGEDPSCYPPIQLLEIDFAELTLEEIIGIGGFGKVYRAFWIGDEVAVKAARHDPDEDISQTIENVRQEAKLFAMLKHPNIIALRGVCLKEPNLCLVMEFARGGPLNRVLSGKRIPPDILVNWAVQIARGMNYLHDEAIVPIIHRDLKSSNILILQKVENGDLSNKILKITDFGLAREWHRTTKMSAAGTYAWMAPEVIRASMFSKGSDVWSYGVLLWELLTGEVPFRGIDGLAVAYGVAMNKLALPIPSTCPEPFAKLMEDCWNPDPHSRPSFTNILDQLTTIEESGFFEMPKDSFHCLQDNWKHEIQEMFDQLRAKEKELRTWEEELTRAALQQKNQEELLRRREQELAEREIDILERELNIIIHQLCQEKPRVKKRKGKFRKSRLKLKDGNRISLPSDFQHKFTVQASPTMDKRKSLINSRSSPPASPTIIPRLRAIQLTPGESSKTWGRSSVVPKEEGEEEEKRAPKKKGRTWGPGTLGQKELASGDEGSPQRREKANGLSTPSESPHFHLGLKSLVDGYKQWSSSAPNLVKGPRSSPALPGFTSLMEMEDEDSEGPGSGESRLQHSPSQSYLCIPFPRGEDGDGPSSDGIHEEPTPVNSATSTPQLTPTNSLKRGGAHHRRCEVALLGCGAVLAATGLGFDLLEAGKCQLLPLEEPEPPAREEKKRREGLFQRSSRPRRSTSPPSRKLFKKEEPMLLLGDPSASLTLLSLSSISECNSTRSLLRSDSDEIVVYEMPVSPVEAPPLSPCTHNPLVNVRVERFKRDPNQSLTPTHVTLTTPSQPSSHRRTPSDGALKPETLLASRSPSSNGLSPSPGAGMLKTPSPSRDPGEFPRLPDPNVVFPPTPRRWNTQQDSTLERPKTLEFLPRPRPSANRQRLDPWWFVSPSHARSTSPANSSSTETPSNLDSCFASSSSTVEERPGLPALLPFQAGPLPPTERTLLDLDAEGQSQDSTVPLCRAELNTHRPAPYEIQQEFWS
Chain of EPHA1 (human) (P21709 whole entry, looked up): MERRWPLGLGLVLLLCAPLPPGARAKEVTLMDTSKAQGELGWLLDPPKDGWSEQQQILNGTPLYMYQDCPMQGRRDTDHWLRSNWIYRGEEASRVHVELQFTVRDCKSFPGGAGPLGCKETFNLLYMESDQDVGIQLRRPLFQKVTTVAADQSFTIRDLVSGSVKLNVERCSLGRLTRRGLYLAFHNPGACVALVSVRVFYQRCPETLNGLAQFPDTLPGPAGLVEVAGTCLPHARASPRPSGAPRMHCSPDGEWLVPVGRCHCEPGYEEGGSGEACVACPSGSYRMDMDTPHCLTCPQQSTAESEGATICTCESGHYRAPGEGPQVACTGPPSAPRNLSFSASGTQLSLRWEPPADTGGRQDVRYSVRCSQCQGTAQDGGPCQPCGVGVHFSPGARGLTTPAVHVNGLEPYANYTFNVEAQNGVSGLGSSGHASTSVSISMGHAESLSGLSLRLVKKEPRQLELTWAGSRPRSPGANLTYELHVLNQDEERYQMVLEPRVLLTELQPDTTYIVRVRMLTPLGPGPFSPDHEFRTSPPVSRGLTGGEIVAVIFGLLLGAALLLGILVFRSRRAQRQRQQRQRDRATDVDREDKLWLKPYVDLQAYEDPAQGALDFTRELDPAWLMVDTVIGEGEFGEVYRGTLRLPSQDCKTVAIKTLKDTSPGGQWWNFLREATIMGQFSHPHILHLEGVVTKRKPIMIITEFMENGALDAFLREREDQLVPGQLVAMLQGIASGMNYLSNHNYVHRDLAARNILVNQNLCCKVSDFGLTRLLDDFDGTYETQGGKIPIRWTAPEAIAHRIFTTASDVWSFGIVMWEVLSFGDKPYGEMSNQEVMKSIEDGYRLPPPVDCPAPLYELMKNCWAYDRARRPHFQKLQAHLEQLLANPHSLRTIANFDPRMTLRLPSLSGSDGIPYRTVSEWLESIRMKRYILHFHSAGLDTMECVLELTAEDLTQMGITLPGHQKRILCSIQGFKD
Chain of RPS6KA3 KD1 KD2 (human) (P51812 whole entry, looked up): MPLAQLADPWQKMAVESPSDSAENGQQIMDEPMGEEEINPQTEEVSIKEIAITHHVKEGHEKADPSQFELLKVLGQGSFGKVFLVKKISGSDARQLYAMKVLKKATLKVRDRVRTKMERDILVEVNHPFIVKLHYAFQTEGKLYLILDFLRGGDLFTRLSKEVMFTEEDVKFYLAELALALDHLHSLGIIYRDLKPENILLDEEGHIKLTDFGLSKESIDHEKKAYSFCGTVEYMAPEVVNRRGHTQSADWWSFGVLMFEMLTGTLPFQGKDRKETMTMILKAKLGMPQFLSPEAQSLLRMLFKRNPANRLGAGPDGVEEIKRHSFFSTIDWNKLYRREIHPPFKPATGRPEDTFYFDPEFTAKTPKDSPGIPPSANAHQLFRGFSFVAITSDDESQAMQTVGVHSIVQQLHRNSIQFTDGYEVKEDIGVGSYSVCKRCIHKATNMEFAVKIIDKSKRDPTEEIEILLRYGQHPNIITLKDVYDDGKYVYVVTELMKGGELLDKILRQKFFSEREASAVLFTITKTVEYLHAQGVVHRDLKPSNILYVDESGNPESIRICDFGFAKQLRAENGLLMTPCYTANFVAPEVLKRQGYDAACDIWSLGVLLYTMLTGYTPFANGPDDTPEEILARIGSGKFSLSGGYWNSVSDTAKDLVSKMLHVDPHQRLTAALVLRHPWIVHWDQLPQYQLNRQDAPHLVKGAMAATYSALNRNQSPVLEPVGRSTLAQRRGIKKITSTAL
Chain of MAP3K2 (human) (Q9Y2U5 whole entry, looked up): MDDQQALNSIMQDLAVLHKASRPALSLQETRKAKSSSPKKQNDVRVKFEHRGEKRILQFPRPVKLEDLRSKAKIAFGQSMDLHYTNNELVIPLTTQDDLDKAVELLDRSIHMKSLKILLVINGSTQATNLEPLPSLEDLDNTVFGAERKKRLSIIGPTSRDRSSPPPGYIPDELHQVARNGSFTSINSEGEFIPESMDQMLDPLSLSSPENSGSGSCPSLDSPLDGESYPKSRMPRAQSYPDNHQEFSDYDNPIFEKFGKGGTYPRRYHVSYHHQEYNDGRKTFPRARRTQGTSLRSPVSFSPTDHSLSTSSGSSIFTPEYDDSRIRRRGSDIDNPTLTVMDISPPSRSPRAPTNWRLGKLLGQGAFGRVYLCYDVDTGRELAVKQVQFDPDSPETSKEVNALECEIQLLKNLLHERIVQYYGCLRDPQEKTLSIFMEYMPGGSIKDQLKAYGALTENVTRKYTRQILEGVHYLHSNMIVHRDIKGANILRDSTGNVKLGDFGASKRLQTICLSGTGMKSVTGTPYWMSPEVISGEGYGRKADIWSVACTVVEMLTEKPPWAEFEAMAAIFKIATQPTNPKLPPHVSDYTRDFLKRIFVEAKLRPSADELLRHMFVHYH
Chain of CSNK2A2 (human) (P19784 whole entry, looked up): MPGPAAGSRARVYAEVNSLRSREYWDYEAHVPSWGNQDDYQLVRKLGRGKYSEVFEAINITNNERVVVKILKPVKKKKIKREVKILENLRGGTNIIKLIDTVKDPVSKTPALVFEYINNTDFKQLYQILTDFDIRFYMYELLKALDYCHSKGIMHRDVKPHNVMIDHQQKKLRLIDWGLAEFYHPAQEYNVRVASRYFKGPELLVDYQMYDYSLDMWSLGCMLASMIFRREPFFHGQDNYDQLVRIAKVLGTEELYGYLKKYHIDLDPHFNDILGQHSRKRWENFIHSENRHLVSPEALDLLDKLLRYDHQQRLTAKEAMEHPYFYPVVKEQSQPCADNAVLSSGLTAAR
Chain of NEK7 (human) (Q8TDX7 whole entry, looked up): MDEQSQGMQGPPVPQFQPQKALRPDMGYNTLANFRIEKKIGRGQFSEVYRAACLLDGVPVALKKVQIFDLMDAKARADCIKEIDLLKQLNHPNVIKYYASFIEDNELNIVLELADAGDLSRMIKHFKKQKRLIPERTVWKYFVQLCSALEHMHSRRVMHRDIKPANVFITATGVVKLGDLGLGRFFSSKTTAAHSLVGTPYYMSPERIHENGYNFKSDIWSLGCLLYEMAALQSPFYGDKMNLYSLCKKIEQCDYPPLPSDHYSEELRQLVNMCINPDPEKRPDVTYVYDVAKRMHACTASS

## O=S(=O)(NCCNC/C=C/c1ccc(Br)cc1)c1cccc2cnccc12
MAP3K9 (human)
  residual activity: 99.6%
EPHA3 (human)
  residual activity: 109%
GSK3A (human)
  residual activity: 94.3%
MAP3K2 (human)
  residual activity: 91.5%
CSNK2A2 (human)
  residual activity: 86.6%
CHUK (human)
  residual activity: 104%
FES (human)
  residual activity: 115%
NUAK1 (human)
  residual activity: 32.8%
BTK (human)
  residual activity: 97.4%
PRKD2 (human)
  residual activity: 75.9%
RET (human)
  residual activity: 102%
SRPK2 (human)
  residual activity: 88.3%
CAMK2B (human)
  residual activity: 93.3%
TBK1 (human)
  residual activity: 101%
MAPK13 (human)
  residual activity: 101%
CDK4 CCND3 (human)
  residual activity: 106%
STK25 (human)
  residual activity: 104%
CAMK1D (human)
  residual activity: 85.5%
GSG2 (human)
  residual activity: 55.1%
EPHA8 (human)
  residual activity: 118%
RPS6KA3 KD1 KD2 (human)
  residual activity: 70.9%
NEK7 (human)
  residual activity: 96.9%
DYRK1A (human)
  residual activity: 98.5%
MARK1 (human)
  residual activity: 91.2%
[1]
  residual activity: 87.3%
CSNK1G2 (human)
  residual activity: 86.8%
IGF1R (human)
  residual activity: 104%
MERTK (human)
  residual activity: 79.8%
PTK2B (human)
  residual activity: 85%
NTRK3 (human)
  residual activity: 79.6%
TSSK1B (human)
  residual activity: 93.5%
NTRK2 (human)
  residual activity: 95.1%
DDR2 (human)
  residual activity: 93.8%
EPHA1 (human)
  residual activity: 83.7%
DAPK1 (human)
  residual activity: 81.5%
NUAK2 (human)
  residual activity: 78.1%
MAP2K2 (human)
  residual activity: 103%
PRKG1 (human)
  residual activity: 26.3% and 41.1%
HIPK4 (human)
  residual activity: 97.7%
ABL2 (human)
  residual activity: 84.4%
EPHA2 (human)
  residual activity: 101%
EPHB2 (human)
  residual activity: 81.7%

## CCOc1cc2ncnc(Nc3cccc(Br)c3)c2cc1OCC
MAP3K9 (human)
  residual activity: 96.1%
EPHA3 (human)
  residual activity: 83.3%
GSK3A (human)
  residual activity: 110%
MAP3K2 (human)
  residual activity: 102%
CSNK2A2 (human)
  residual activity: 93.8%
CHUK (human)
  residual activity: 105%
FES (human)
  residual activity: 96.8%
NUAK1 (human)
  residual activity: 94%
BTK (human)
  residual activity: 72.7%
PRKD2 (human)
  residual activity: 86.9%
RET (human)
  residual activity: 39.3%
SRPK2 (human)
  residual activity: 95.6%
CAMK2B (human)
  residual activity: 98.8%
TBK1 (human)
  residual activity: 85.4%
MAPK13 (human)
  residual activity: 96.7%
CDK4 CCND3 (human)
  residual activity: 97.8%
STK25 (human)
  residual activity: 90.1%
CAMK1D (human)
  residual activity: 102%
GSG2 (human)
  residual activity: 90.6%
EPHA8 (human)
  residual activity: 87.3%
RPS6KA3 KD1 KD2 (human)
  residual activity: 89.9%
NEK7 (human)
  residual activity: 98.6%
DYRK1A (human)
  residual activity: 98.7%
MARK1 (human)
  residual activity: 90.3%
[1]
  residual activity: 102%
CSNK1G2 (human)
  residual activity: 103%
IGF1R (human)
  residual activity: 101%
MERTK (human)
  residual activity: 87.1%
PTK2B (human)
  residual activity: 95.8%
NTRK3 (human)
  residual activity: 91.5%
TSSK1B (human)
  residual activity: 92.9%
NTRK2 (human)
  residual activity: 105%
DDR2 (human)
  residual activity: 100%
EPHA1 (human)
  residual activity: 84.7%
DAPK1 (human)
  residual activity: 77.4%
NUAK2 (human)
  residual activity: 89.7%
MAP2K2 (human)
  residual activity: 95.5%
PRKG1 (human)
  residual activity: 96% and 96.7%
HIPK4 (human)
  residual activity: 89.9%
ABL2 (human)
  residual activity: 52.1%
EPHA2 (human)
  residual activity: 80.3%
EPHB2 (human)
  residual activity: 77%

## CCCCc1c(-c2ccc(O)cc2)[nH]c2nccnc12
MAP3K9 (human)
  residual activity: 37.3%
EPHA3 (human)
  residual activity: 95%
GSK3A (human)
  residual activity: 57.7%
MAP3K2 (human)
  residual activity: 77.2%
CSNK2A2 (human)
  residual activity: 94.7%
CHUK (human)
  residual activity: 77.6%
FES (human)
  residual activity: 64.5%
NUAK1 (human)
  residual activity: 19.1%
BTK (human)
  residual activity: 61.7%
PRKD2 (human)
  residual activity: 95.3%
RET (human)
  residual activity: 52.6%
SRPK2 (human)
  residual activity: 110%
CAMK2B (human)
  residual activity: 97%
TBK1 (human)
  residual activity: 82.1%
MAPK13 (human)
  residual activity: 101%
CDK4 CCND3 (human)
  residual activity: 71%
STK25 (human)
  residual activity: 91.4%
CAMK1D (human)
  residual activity: 96.9%
GSG2 (human)
  residual activity: 65.3%
EPHA8 (human)
  residual activity: 97.4%
RPS6KA3 KD1 KD2 (human)
  residual activity: 90.8%
NEK7 (human)
  residual activity: 111%
DYRK1A (human)
  residual activity: 92.9%
MARK1 (human)
  residual activity: 91.9%
[1]
  residual activity: 53.8%
CSNK1G2 (human)
  residual activity: 78.5%
IGF1R (human)
  residual activity: 87.3%
MERTK (human)
  residual activity: 94.1%
PTK2B (human)
  residual activity: 99%
NTRK3 (human)
  residual activity: 76.1%
TSSK1B (human)
  residual activity: 62%
NTRK2 (human)
  residual activity: 73.7%
DDR2 (human)
  residual activity: 96%
EPHA1 (human)
  residual activity: 68.8%
DAPK1 (human)
  residual activity: 85.3%
NUAK2 (human)
  residual activity: 64.8%
MAP2K2 (human)
  residual activity: 84.7%
PRKG1 (human)
  residual activity: 88.8% and 94.5%
HIPK4 (human)
  residual activity: 108%
ABL2 (human)
  residual activity: 64.9%
EPHA2 (human)
  residual activity: 81.7%
EPHB2 (human)
  residual activity: 92.3%

## COc1cc2ncnc(Nc3ccc(O)c(Br)c3)c2cc1OC
MAP3K9 (human)
  residual activity: 80.1%
EPHA3 (human)
  residual activity: 95.4%
GSK3A (human)
  residual activity: 131%
MAP3K2 (human)
  residual activity: 92.4%
CSNK2A2 (human)
  residual activity: 89.2%
CHUK (human)
  residual activity: 107%
FES (human)
  residual activity: 94.9%
NUAK1 (human)
  residual activity: 68.2%
BTK (human)
  residual activity: 85.5%
PRKD2 (human)
  residual activity: 69.7%
RET (human)
  residual activity: 21.4%
SRPK2 (human)
  residual activity: 63%
CAMK2B (human)
  residual activity: 99.3%
TBK1 (human)
  residual activity: 84.7%
MAPK13 (human)
  residual activity: 102%
CDK4 CCND3 (human)
  residual activity: 110%
STK25 (human)
  residual activity: 99.6%
CAMK1D (human)
  residual activity: 98.6%
GSG2 (human)
  residual activity: 84.8%
EPHA8 (human)
  residual activity: 88.3%
RPS6KA3 KD1 KD2 (human)
  residual activity: 69.4%
NEK7 (human)
  residual activity: 101%
DYRK1A (human)
  residual activity: 97.8%
MARK1 (human)
  residual activity: 94.8%
[1]
  residual activity: 81.5%
CSNK1G2 (human)
  residual activity: 96.4%
IGF1R (human)
  residual activity: 104%
MERTK (human)
  residual activity: 87.7%
PTK2B (human)
  residual activity: 86.9%
NTRK3 (human)
  residual activity: 83.4%
TSSK1B (human)
  residual activity: 84.7%
NTRK2 (human)
  residual activity: 94.8%
DDR2 (human)
  residual activity: 119%
EPHA1 (human)
  residual activity: 80.4%
DAPK1 (human)
  residual activity: 92%
NUAK2 (human)
  residual activity: 88.3%
MAP2K2 (human)
  residual activity: 86.2%
PRKG1 (human)
  residual activity: 87.1% and 88.9%
HIPK4 (human)
  residual activity: 107%
ABL2 (human)
  residual activity: 58.4%
EPHA2 (human)
  residual activity: 80.6%
EPHB2 (human)
  residual activity: 66.1%
